According to patent publication US9676758B2, “1-heteroaryl-indoline-4-carboxamides as modulators of GPR52 useful for the treatment or prevention of disorders related thereto” (Arena Pharmaceuticals, Inc., priority 2015, dated 2017):

Legend:
male Sprague-Dawley rats = assay: Amphetamine-stimulated locomotor activity in rats; assay type: in vivo, rat; settings: 0.5, 1, 2, 5, 10, and 20 mg/kg P.O., amphetamine 0.5 mg/kg SC, FIG. 24
Procedure: Fifteen minutes later, rats were injected with amphetamine (0.5 mg/kg SC in volume of 1 mL/kg). Activity was then measured for 90 minutes.

male Sprague Dawley rats = assay: Plasma prolactin levels in rats (ELISA); assay type: in vivo, rat
Procedure: Another unwanted side effect of certain antipsychotics is hyperprolactinemia. To examine prolactin levels following the administration of a GPR52 agonist, male Sprague Dawley rats (Harlan Laboratories, San Diego, Calif.) were single-housed, handled, and moved to a private housing room one week prior to testing. Rats were individually handled and sham dosed P.O. for four days prior to testing. For an assessment of haloperidol (0.1 and 1 mg/kg P.O.) and Compound 13 (1, 10, and 100 mg/kg P.O.) on basal prolactin release, rats were dosed with acidic 20% HP-β-cyclodextrin (HBCD) or compound at 3 mL/kg P.O. in their housing room 60 minutes prior to harvest. For interaction studies, rats were dosed with 20% HBCD or Compound 13 (10 mg/kg P.O.) 90 minutes prior to harvest, and additionally with 20% HBCD vehicle or haloperidol (0.3 and 1 mg/kg P.O.) 60 minutes prior to harvest. Rats were individually taken to the harvest room, and trunk blood was collected into 4 mL EDTA tubes following live decapitation. Samples were stored on wet ice until collection was complete, then spun in a cooling centrifuge at 2400 rpm for 20 minutes. Plasma was collected and frozen for subsequent analysis using a Rat Prolactin ELISA kit (ALPCO Diagnostics: Cat#55-PRLRT-E01).
Briefly, frozen plasma was thawed on ice and mixed prior to initiation of the ELISA. Twenty-five microliters of sample plasma along with serially diluted standards (lyophilized purified rat prolactin diluted with rat prolactin calibrator/sample diluent), and calibrator/sample diluent used as a blank were placed in a 96-well plate provided with the ELISA kit. Samples, blank, and standards were measured in duplicate. […] Fifty microliters of stop solution (2M hydrochloric acid) was added to the wells prior to reading on a 96-well plate reader (SpectraMax® 340PC; Molecular Devices, Sunnyvale, Calif.) at […]. The quantity of prolactin in each sample was calculated using a standard curve.

For `O=C(NCCO)c1cccc2c1CCN2c1cc(Cc2cccc(C(F)(F)F)c2)ccn1` [Compound 13, N-(2-Hydroxyethyl)-1-(4-(3-(trifluoromethyl)benzyl)pyridin-2-yl)indoline-4-carboxamide], the amphetamine-stimulated locomotion (male Sprague-Dawley rats) was “blocked amphetamine-stimulated locomotion at several doses”, the “haloperidol-induced increase in prolactin levels” value (male Sprague Dawley rats; Compound 13 10 mg/kg P.O., at a low dose of haloperidol, FIG. 28B) was “reversed” and the prolactin levels (male Sprague Dawley rats; basal prolactin release, haloperidol 0.1 and 1 mg/kg P.O., Compound 13 1, 10, and 100 mg/kg P.O., FIG. 28A) was “decreased”.
